Entries after “also recorded” stand apart in the source; their conditions may differ.
Assays:
BMDCs [1] = assay: Intracellular IL-12 and CD86 on BMDCs treated in vitro with TLR ligands (flow cytometry); conditions: for inducing IL-12 production from DCs / upregulation of CD86 expression: TLR4 ligand alone; for inducing IL-12 production from DCs: relative to MALP-2+PolyI:C and PolyI:C+CpG; for upregulation of CD86 expression: relative to PolyI:C, FIG. 9B; for synergy with PolyI:C in IL-12 production: TLR2 ligand combined with PolyI:C
BMDCs [2] = assay: Secreted cytokines/chemokines from BMDCs treated in vitro with TLR ligands (multiplex); assay type: cell-based, mouse; conditions: FIG. 3D
[3] = system: popliteal LN MHC class II+CD11c+ DCs; assay: DC activation in popliteal LNs after footpad immunization with TLR ligands; assay type: in vivo, mice; conditions: FIG. 5D
Procedure: Mice were immunized in the footpads with MALP-2, PolyI:C and CpG singly or pairwise. Paired popliteal LN cells were isolated 36 hours later for assay by flow cytometry. […] Panel (D) is a graph showing CD86 expression on DCs.
If this hypothesis were true, it may be expected that use of synergistic combinations of TLRs as adjuvant would result in similar activation of DCs in vivo. To test this hypothesis, DCs were isolated from popliteal LNs following footpad immunization with TLR ligands and examined ex vivo. […] Therefore, the interplay of TLRs in activating DCs in vivo is nonrandom and mediated through potentiating MyD88-dependent cytokines that could account for the activation of specific T cells.

purified T cells = assay: Purified T cells cultured with recombinant cytokines/chemokines (CD69); assay type: cell-based, mouse; conditions: added to MyD88-dependent cytokines; FIG. 12B
Procedure: Panel (A) is a graph showing the results when BMDC pretreated with MALP-2+PolyI:C were cultured with purified T cells in the presence of neutralizing antibodies against cytokines as indicated. CD69+ T cells were measured 24 hours later. Panel (B) is a graph showing the results when purified T cells were culture in the presence of IL-12 (25 ng/ml), TNFa (10 ng/ml), MIP-1a (50 ng/ml) and IP-10 (25 ng/ml) singly or in combinations as indicated. CD69+CD8+ T cells were measured after 24 hours of treatment.
As there are several MyD88-dependent inflammatory cytokines that are produced downstream of the JNK/c-Jun pathway, blocking one of these cytokines may not be expected to abolish the synergy effect.

Compound | inducing IL-12 production from DCs (BMDCs [1]) | upregulation of CD86 expression (BMDCs [1]) | synergy with PolyI:C in IL-12 production (BMDCs [1]; FIG. 9A) | also measured
monophosphoryl lipid A [MPL] | equivalent | efficacy equivalent to PolyI:C | – | –
Lipoteichoic acids [LTA] | – | – | could also act synergistically and did | –
polyinosine-polycytidylic acid [PolyI:C] | – | – | – | IP-10 production by DCs (BMDCs [2]; ligand alone): produce IP-10; expression of CD86 by LN DCs ([3]; ligand alone): upregulated; IL-12 production on addition to the TLR4 stimulation (BMDCs [1]; FIG. 9A): did not further enhance; CD86 expression on DCs (BMDCs [1]; ligand alone, FIG. 3C): upregulate CD86 expression
lipopolysaccharide [LPS] | equivalent | efficacy equivalent to PolyI:C | – | –
macrophage activating lipoprotein (MALP-2) | – | – | did | further increase in IP-10 production compared to PolyI:C alone (BMDCs [2]; ligand added to PolyI:C): did not result in a further increase; increase in CD86 by LN DCs when ligand included with PolyI:C [3]: no significant increases; further increase in CD86 expression compared to PolyI:C alone (BMDCs [1]; ligand added to PolyI:C, FIG. 3C): did not result in a further increase
IP-10: Recombinant IP-10 protein purchased from Peprotech | – | – | – | enhancement of the CD69 response already induced by the MyD88-dependent cytokines (purified T cells): did not significantly enhance
CCCCCCCCCCCC(=O)CC(=O)N[C@H](COCC[C@@H](CCCCCCC)OC(=O)CCCCCCCCCCC)COP(=O)(O)OCCNC(=O)NCCOP(=O)(O)OC[C@@H](COCC[C@@H](CCCCCCC)OC(=O)CCCCCCCCCCC)NC(=O)CC(=O)CCCCCCCCCCC [E6020] | equivalent | efficacy equivalent to PolyI:C | – | –
PAM3CSK4 | – | – | could not; also recorded: did not synergize | –

From patent US9421254B2, “Immunostimulatory combinations of TLR ligands and methods of use” (The United States of America, as represented by the …, priority 2007, dated 2016)
